In the supplement of paper PMC4862054:

Tests used:
Settings in all cases: incubation time: 72 h
BT-549 [1] = test: drug sensitivity score (DSS), CellTox Green (DSS (AUC-based score)); higher = stronger drug effect (viability inhibition or cytotoxicity); extreme values may be limits of the assay
Procedure, shortened: (§1)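 Plates with 384 wells held compound at 5 concentrations in 10-fold steps over a 10,000-fold range specific to each compound. Breast cancer cell lines were added in 20 µl suspension and incubated 72 h, then read for CellTox Green and CellTiter-Glo signals, with each plate normalised to 0.1 % DMSO and a positive kill control. The drug sensitivity score is based on the area under the fitted dose-response curve.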

HDQ-P1 [2] = test: as above
Procedure, shortened: as §1

MFM-223 [3] = test: as above
Procedure, shortened: as §1

CAL-148 [4] = test: as above
Procedure, shortened: as §1

DU-4475 [5] = test: normalised viability (% of control), CellTiter-Blue; higher = more viable cells (about 100 = DMSO control)
Procedure, shortened: (§2)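 Plates were quality-checked by Z'-factor and normalised to vehicle (100) and a positive kill control (0). The underlying assay incubated breast cancer cell lines for 72 h on 384-well plates with compound, then added 2.5 µl CellTiter-Blue for 2 h at 37 °C and read at 560/590 nm. The value is normalised viability at a single listed concentration of the series.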

HCC1937 [6] = test: as above
Procedure, shortened: as §2

MDA-MB-231 = test: drug sensitivity score (DSS), CellTiter-Blue viability (DSS (AUC-based score)); higher = stronger viability inhibition; extreme values may be limits of the assay
Experimental: (§3)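 DSRT with the CellTiter-Blue (resazurin reduction) viability readout, fluorescence 560/590 nm, 72 h incubation. Plates were normalised to DMSO and benzethonium chloride controls. DSS is computed from the area under the fitted dose-response curve (5 or 9 concentrations).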

BT-549 [7] = test: as above
Experimental: as §3

HDQ-P1 [8] = test: as above
Experimental: as §3

CAL-51 = test: as above
Experimental: as §3

DU-4475 [9] = test: as above
Experimental: as §3

Hs578T = test: as above
Experimental: as §3

MDA-MB-453 = test: as above
Experimental: as §3

CAL-85-1 = test: as above
Experimental: as §3

SK-BR-3 = test: as above
Experimental: as §3

MFM-223 [10] = test: as above
Experimental: as §3

HCC1599 = test: as above
Experimental: as §3

HCC1143 = test: as above
Experimental: as §3

CAL-148 [11] = test: as above
Experimental: as §3

MDA-MB-436 = test: as above
Experimental: as §3

BT-474 = test: as above
Experimental: as §3

HCC1937 [12] = test: as above
Experimental: as §3

CAL-120 = test: as above
Experimental: as §3

MDA-MB-468 = test: as above
Experimental: as §3

CCn1c(-c2nonc2N)nc2cnc(Oc3cccc(NC(=O)c4ccc(OCCN5CCOCC5)cc4)c3)cc21
drug sensitivity score (BT-549 [1]): 0 | drug sensitivity score (HDQ-P1 [2]): 0 | drug sensitivity score (MFM-223 [3]): 0 | drug sensitivity score (CAL-148 [4]): 0

Cc1cc(Nc2cc(CN3CCOCC3)c3nc(C)c(Cc4ccc(Cl)cc4F)n3n2)n[nH]1
normalised viability (DU-4475 [5]; 3 nM): 110% | normalised viability (DU-4475 [5]; 30 nM): 94.7% | normalised viability (DU-4475 [5]; 100 nM): 122% | normalised viability (HCC1937 [6]; 10 nM): 80.4% | normalised viability (HCC1937 [6]; 1000 nM): 64.7% | normalised viability (HCC1937 [6]; 10000 nM): 44% | drug sensitivity score (MDA-MB-231): 7.21 | drug sensitivity score (BT-549 [7]): 6.94 | drug sensitivity score (HDQ-P1 [8]): 11.8 | drug sensitivity score (CAL-51): 6.91 | drug sensitivity score (DU-4475 [9]): 4.98 | drug sensitivity score (Hs578T): 7.69 | drug sensitivity score (MDA-MB-453): 10.2 | drug sensitivity score (CAL-85-1): 4.09 | drug sensitivity score (SK-BR-3): 6.64 | drug sensitivity score (MFM-223 [10]): 13.5 | drug sensitivity score (HCC1599): 0 | drug sensitivity score (HCC1143): 11.4 | drug sensitivity score (CAL-148 [11]): 0 | drug sensitivity score (MDA-MB-436): 7.24 | drug sensitivity score (BT-474): 3.02 | drug sensitivity score (HCC1937 [12]): 6.84 | drug sensitivity score (CAL-120): 8.01 | drug sensitivity score (MDA-MB-468): 10.3

N#Cc1ccc(COC[C@H]2O[C@@H](n3c(NCc4ccc(Cl)c(Cl)c4)nc4c(N)ncnc43)[C@H](O)[C@@H]2O)cc1
normalised viability (DU-4475 [5]; 3 nM): 97.8% | normalised viability (DU-4475 [5]; 30 nM): 88.7% | normalised viability (DU-4475 [5]; 100 nM): 113% | normalised viability (HCC1937 [6]; 10 nM): 135% | normalised viability (HCC1937 [6]; 1000 nM): 78.5% | normalised viability (HCC1937 [6]; 10000 nM): 71.8% | drug sensitivity score (BT-549 [1]): 0 | drug sensitivity score (HDQ-P1 [2]): 0 | drug sensitivity score (MFM-223 [3]): 3.38 | drug sensitivity score (CAL-148 [4]): 0 | drug sensitivity score (MDA-MB-231): 4.35 | drug sensitivity score (BT-549 [7]): 4.23 | drug sensitivity score (HDQ-P1 [8]): 0 | drug sensitivity score (CAL-51): 0 | drug sensitivity score (DU-4475 [9]): 1.33 | drug sensitivity score (Hs578T): 0 | drug sensitivity score (MDA-MB-453): 0 | drug sensitivity score (CAL-85-1): 0 | drug sensitivity score (SK-BR-3): 1.46 | drug sensitivity score (MFM-223 [10]): 0 | drug sensitivity score (HCC1599): 8.13 | drug sensitivity score (HCC1143): 0 | drug sensitivity score (CAL-148 [11]): 0 | drug sensitivity score (MDA-MB-436): 4.85 | drug sensitivity score (BT-474): 0 | drug sensitivity score (HCC1937 [12]): 3.59 | drug sensitivity score (CAL-120): 0 | drug sensitivity score (MDA-MB-468): 1.65

COc1cc(O)c2c(c1)/C=C/C[C@H](O)[C@H](O)C(=O)/C=C\C[C@H](C)OC2=O [(5Z)-7-Oxozeaenol]
drug sensitivity score (BT-549 [1]): 0 | drug sensitivity score (HDQ-P1 [2]): 0 | drug sensitivity score (MFM-223 [3]): 8.77 | drug sensitivity score (CAL-148 [4]): 16.9

COc1cc(OC2CCN(C)CC2)ccc1Nc1ncc2c(n1)n(C1CCCC1)c(=O)n2C [AZ 3146]
normalised viability (DU-4475 [5]; 3 nM): 111% | normalised viability (DU-4475 [5]; 30 nM): 90% | normalised viability (DU-4475 [5]; 100 nM): 100% | normalised viability (HCC1937 [6]; 10 nM): 124% | normalised viability (HCC1937 [6]; 1000 nM): 98% | normalised viability (HCC1937 [6]; 10000 nM): 92% | drug sensitivity score (BT-549 [1]): 0 | drug sensitivity score (HDQ-P1 [2]): 0 | drug sensitivity score (MFM-223 [3]): 0 | drug sensitivity score (CAL-148 [4]): 0 | drug sensitivity score (MDA-MB-231): 3.65 | drug sensitivity score (BT-549 [7]): 0 | drug sensitivity score (HDQ-P1 [8]): 0 | drug sensitivity score (CAL-51): 8.18 | drug sensitivity score (DU-4475 [9]): 1.56 | drug sensitivity score (Hs578T): 0 | drug sensitivity score (MDA-MB-453): 3.31 | drug sensitivity score (CAL-85-1): 1.25 | drug sensitivity score (SK-BR-3): 2.13 | drug sensitivity score (MFM-223 [10]): 0 | drug sensitivity score (HCC1599): 0 | drug sensitivity score (HCC1143): 0 | drug sensitivity score (CAL-148 [11]): 4.7 | drug sensitivity score (MDA-MB-436): 0 | drug sensitivity score (BT-474): 0 | drug sensitivity score (HCC1937 [12]): 0 | drug sensitivity score (CAL-120): 0.478 | drug sensitivity score (MDA-MB-468): 0

CNC(=O)c1cccc(-c2ccc3c(N4CCOC[C@@H]4C)nc(N4CCOC[C@@H]4C)nc3n2)c1 [AZD2014]
drug sensitivity score (BT-549 [1]): 0 | drug sensitivity score (HDQ-P1 [2]): 0 | drug sensitivity score (MFM-223 [3]): 3.63 | drug sensitivity score (CAL-148 [4]): 11

CN(C)c1nc(N(C)C)nc(N(C)C)n1 [Altretamine]
normalised viability (DU-4475 [5]; 3 nM): 94.6% | normalised viability (DU-4475 [5]; 30 nM): 83.6% | normalised viability (DU-4475 [5]; 100 nM): 105% | normalised viability (HCC1937 [6]; 10 nM): 100% | normalised viability (HCC1937 [6]; 1000 nM): 96.3% | normalised viability (HCC1937 [6]; 10000 nM): 88.6% | drug sensitivity score (BT-549 [1]): 0 | drug sensitivity score (HDQ-P1 [2]): 0 | drug sensitivity score (MFM-223 [3]): 0 | drug sensitivity score (CAL-148 [4]): 0 | drug sensitivity score (MDA-MB-231): 0 | drug sensitivity score (BT-549 [7]): 0 | drug sensitivity score (HDQ-P1 [8]): 0 | drug sensitivity score (CAL-51): 0 | drug sensitivity score (DU-4475 [9]): 0 | drug sensitivity score (Hs578T): 0 | drug sensitivity score (MDA-MB-453): 2.05 | drug sensitivity score (CAL-85-1): 1.01 | drug sensitivity score (SK-BR-3): 0 | drug sensitivity score (MFM-223 [10]): 0 | drug sensitivity score (HCC1599): 1.24 | drug sensitivity score (HCC1143): 0 | drug sensitivity score (CAL-148 [11]): 0 | drug sensitivity score (MDA-MB-436): 0 | drug sensitivity score (BT-474): 0 | drug sensitivity score (HCC1937 [12]): 0 | drug sensitivity score (CAL-120): 0 | drug sensitivity score (MDA-MB-468): 0

COC(=O)c1ccc2c(c1)NC(=O)/C2=C(\Nc1ccc(N(C)C(=O)CN2CCN(C)CC2)cc1)c1ccccc1 [BIBF 1120]
normalised viability (DU-4475 [5]; 3 nM): 94.6% | normalised viability (DU-4475 [5]; 30 nM): 100% | normalised viability (DU-4475 [5]; 100 nM): 91% | normalised viability (HCC1937 [6]; 10 nM): 144% | normalised viability (HCC1937 [6]; 1000 nM): 130% | normalised viability (HCC1937 [6]; 10000 nM): 84% | drug sensitivity score (MDA-MB-231): 4.3 | drug sensitivity score (BT-549 [7]): 3.02 | drug sensitivity score (HDQ-P1 [8]): 1.16 | drug sensitivity score (CAL-51): 5.59 | drug sensitivity score (DU-4475 [9]): 2.02 | drug sensitivity score (Hs578T): 1.63 | drug sensitivity score (MDA-MB-453): 5.53 | drug sensitivity score (CAL-85-1): 1.29 | drug sensitivity score (SK-BR-3): 2.7 | drug sensitivity score (MFM-223 [10]): 9.32 | drug sensitivity score (HCC1599): 0 | drug sensitivity score (HCC1143): 0 | drug sensitivity score (CAL-148 [11]): 0 | drug sensitivity score (MDA-MB-436): 1.32 | drug sensitivity score (BT-474): 3.34 | drug sensitivity score (HCC1937 [12]): 0 | drug sensitivity score (CAL-120): 6.55 | drug sensitivity score (MDA-MB-468): 2.89
